Measurements published in the supplement of paper PMC10307832.

Key:
Assay in all cases: relative viability (nuclei count vs DMSO), 5 days (fraction); higher = more cells survive
[1] = compound: Cc1ccc(C(=O)Nc2ccc(CN3CCN(C)CC3)c(C(F)(F)F)c2)cc1C#Cc1cnc2cccnn12 [Ponatinib] + COc1cccc2cc(-c3nc([C@H]4CC[C@H](C(=O)O)CC4)n4ncnc(N)c34)[nH]c12 [OSI-027] (partner 0.5 µM)
Method in brief: (§1)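 Cells from lung cancer lines were seeded into 1536-well plates and, one day later, dosed by pin tool. Treatments were either a single drug or a fixed dose of an anchor drug with five library-drug doses (not always all listed) in √10 steps. After 5 days, nuclei were stained in a one-step fixation (final 0.05% Triton X-100, 1% formaldehyde, 1 ug/ml Hoechst) and counted on 4× images, and relative viability is the treated-to-vehicle nuclei ratio, as the median of duplicate plates.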

[2] = compound: Cc1ccc(C(=O)Nc2ccc(CN3CCN(C)CC3)c(C(F)(F)F)c2)cc1C#Cc1cnc2cccnn12 [Ponatinib] + C[C@]1(O)C[C@@H](c2nc(-c3ccc4ccc(-c5ccccc5)nc4c3)c3c(N)nccn32)C1 [Linsitinib] (partner 1 µM)
Method in brief: as §1

[3] = compound: Cc1ccc(C(=O)Nc2ccc(CN3CCN(C)CC3)c(C(F)(F)F)c2)cc1C#Cc1cnc2cccnn12 [Ponatinib] + CS(=O)(=O)N1CCN(Cc2cc3nc(-c4cccc5[nH]ncc45)nc(N4CCOCC4)c3s2)CC1 [Pictilisib] (partner 1 µM)
Method in brief: as §1

[4] = compound: Cc1ccc(C(=O)Nc2ccc(CN3CCN(C)CC3)c(C(F)(F)F)c2)cc1C#Cc1cnc2cccnn12 [Ponatinib] + C[C@@H](Oc1cc(-c2cnn(C3CCNCC3)c2)cnc1N)c1c(Cl)ccc(F)c1Cl [Crizotinib] (partner 1 µM)
Method in brief: as §1

[5] = compound: Cc1ccc(C(=O)Nc2ccc(CN3CCN(C)CC3)c(C(F)(F)F)c2)cc1C#Cc1cnc2cccnn12 [Ponatinib] + Cc1cc(Nc2cc(N3CCN(C)CC3)nc(Sc3ccc(NC(=O)C4CC4)cc3)n2)n[nH]1 [Tozasertib] (partner 0.1 µM)
Method in brief: as §1

| Cell Line | relative viability ([1]; first compound 0.002 µM) | relative viability ([1]; first compound 0.006325 µM) | relative viability ([1]; first compound 0.06325 µM) | relative viability ([1]; first compound 0.2 µM) | relative viability ([2]; first compound 0.002 µM) | relative viability ([2]; first compound 0.006325 µM) | relative viability ([2]; first compound 0.06325 µM) | relative viability ([2]; first compound 0.2 µM) | relative viability ([3]; first compound 0.002 µM) | relative viability ([3]; first compound 0.006325 µM) | relative viability ([3]; first compound 0.06325 µM) | relative viability ([3]; first compound 0.2 µM) | relative viability ([4]; first compound 0.002 µM) | relative viability ([4]; first compound 0.006325 µM) | relative viability ([4]; first compound 0.06325 µM) | relative viability ([4]; first compound 0.2 µM) | relative viability ([5]; first compound 0.002 µM) | relative viability ([5]; first compound 0.006325 µM) | relative viability ([5]; first compound 0.06325 µM) | relative viability ([5]; first compound 0.2 µM) |
| --- | --- | --- | --- | --- | --- | --- | --- | --- | --- | --- | --- | --- | --- | --- | --- | --- | --- | --- | --- | --- |
| 201T | 0.622 | 0.724 | 0.796 | 0.711 | 0.958 | 1.11 | 1.06 | 1.01 | 0.649 | 0.685 | 0.801 | 0.725 | 1.03 | 1.07 | 1.06 | 1.02 | 0.924 | 1.01 | 0.966 | 0.926 |
| A549 | – | – | – | – | 0.612 | 0.632 | 0.688 | 0.591 | 0.527 | 0.645 | 0.608 | 0.401 | 0.625 | 0.743 | 0.682 | 0.702 | – | – | – | – |
| A-427 | 0.49 | 0.429 | 0.396 | 0.215 | 1.06 | 1.09 | 1.21 | 0.981 | 0.691 | 0.756 | 0.529 | 0.531 | 0.875 | 1.02 | 0.838 | 0.743 | 0.23 | 0.227 | 0.198 | 0.167 |
| ABC-1 | 0.394 | 0.513 | 0.47 | 0.393 | 1.07 | 0.881 | 0.794 | 0.973 | 0.826 | 0.78 | 0.884 | 0.658 | 1.24 | 1.23 | 1.08 | 0.852 | 0.213 | 0.147 | 0.141 | 0.204 |
| BEN | 0.3 | 0.305 | 0.312 | 0.332 | 0.858 | 0.985 | 0.846 | 0.87 | 0.544 | 0.62 | 0.601 | 0.462 | 0.838 | 0.824 | 0.804 | 0.794 | 0.544 | 0.52 | 0.486 | 0.533 |
| CAL-12T | 0.571 | 0.523 | 0.568 | 0.418 | 0.791 | 0.773 | 1.12 | 0.899 | 0.425 | 0.464 | 0.515 | 0.432 | 0.774 | 0.653 | 0.756 | 0.614 | 0.317 | 0.259 | 0.268 | 0.265 |
| COR-L23 | 0.707 | 0.73 | 0.766 | 0.604 | 0.9 | 0.826 | 0.889 | 0.741 | 0.768 | 0.753 | 1.04 | 0.703 | 0.525 | 0.588 | 0.619 | 0.568 | 0.209 | 0.213 | 0.171 | 0.142 |
| COR-L 105 | 0.638 | 0.807 | 1.03 | 0.744 | 0.944 | 0.875 | 1.39 | 1.04 | 0.424 | 0.379 | 0.443 | 0.567 | 0.706 | 1.05 | 0.791 | 0.703 | 0.304 | 0.343 | 0.372 | 0.316 |
| Calu-6 | – | – | – | – | 0.956 | 0.964 | 0.932 | 0.747 | 0.92 | 0.87 | 0.928 | 0.724 | 0.701 | 0.73 | 0.805 | 0.763 | – | – | – | – |
| ChaGo-K-1 | 0.465 | 0.594 | 0.571 | 0.493 | – | – | – | – | 0.59 | 0.917 | 0.879 | 0.644 | 1.12 | 1.16 | 1.08 | 0.95 | 0.234 | 0.213 | 0.177 | 0.209 |
| EBC-1 | – | – | – | – | 0.857 | 0.983 | 0.985 | 0.927 | 0.372 | 0.428 | 0.327 | 0.283 | 0.179 | 0.214 | 0.208 | 0.192 | – | – | – | – |
| EKVX | 0.66 | 0.729 | 0.829 | 0.706 | 0.927 | 1.04 | 1.24 | 1.02 | 0.534 | 0.5 | 0.625 | 0.488 | 0.789 | 0.995 | 1.09 | 1.02 | 0.386 | 0.45 | 0.375 | 0.314 |
| EMC-BAC-2 | 0.368 | 0.376 | 0.39 | 0.368 | 0.82 | 0.824 | 0.914 | 0.776 | 0.549 | 0.537 | 0.684 | 0.527 | 0.708 | 0.661 | 0.747 | 0.727 | 0.285 | 0.275 | 0.277 | 0.239 |
| EPLC-272H | 0.283 | 0.278 | 0.299 | 0.268 | 1.06 | 1.24 | 1.31 | 0.801 | 0.29 | 0.373 | 0.342 | 0.335 | 0.787 | 0.753 | 0.886 | 0.811 | 0.246 | 0.394 | 0.365 | 0.307 |
| H3255 | 0.666 | 0.566 | 0.613 | 0.526 | 0.849 | 0.951 | 1.06 | 0.885 | 0.466 | 0.478 | 0.456 | 0.447 | 0.861 | 0.916 | 0.951 | 0.727 | 0.606 | 0.638 | 0.561 | 0.459 |
| HARA | 0.435 | 0.497 | 0.476 | 0.393 | 0.916 | 0.916 | 0.976 | 0.944 | 0.443 | 0.478 | 0.498 | 0.296 | 0.972 | 1.01 | 0.973 | 1.02 | 0.0958 | 0.111 | 0.0906 | 0.0762 |
| HCC-15 | 0.643 | 0.677 | 0.843 | 0.599 | 0.923 | 0.873 | 0.953 | 0.815 | 0.644 | 0.758 | 0.823 | 0.701 | 0.828 | 0.843 | 0.858 | 0.802 | 0.401 | 0.479 | 0.432 | 0.328 |
